Experimental data as given in PubChem BioAssay AID248 (DTP/NCI, 2004).
Toxic doses and inconclusive results are not listed.

System: L1210 leukemia ip in BDF1 mice, survival T/C
Assay: NCI In Vivo Anticancer Drug Screen. Data for tumor model L1210 Leukemia (intraperitoneal) in B6D2F1 (BDF1) mice
Conditions: endpoint: mean survival time, higher = longer survival
How it was run: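 Survival endpoint. Drug-treated group vs vehicle group, expressed as T divided by C. Tumor passaged by transplantation.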

[1] = dose: 100.0 mg/kg/injection, schedule: Q01DX009 (ip), vehicle: Klucel (hydroxypropylcellulose) (HPC)
[2] = dose: 200.0 mg/kg/injection, schedule: Q01DX009 (ip), vehicle: Klucel (hydroxypropylcellulose) (HPC)
[3] = dose: 100.0 mg/kg/injection, schedule: Q04DX003 (ip), vehicle: saline with Tween-80
[4] = dose: 200.0 mg/kg/injection, schedule: Q04DX003 (ip), vehicle: saline with Tween-80
[5] = dose: 50.0 mg/kg/injection, schedule: Q04DX003 (ip), vehicle: saline with Tween-80

With `CNC(=S)NNC(=O)c1ccncc1` the T/C (dose: 100.0 mg/kg/injection, schedule: Q04DX002 (ip), vehicle: saline with Tween-80) was 100 % of control, the T/C (dose: 200.0 mg/kg/injection, schedule: Q04DX002 (ip), vehicle: saline with Tween-80) was 100 % of control and the T/C (dose: 400.0 mg/kg/injection, schedule: Q04DX002 (ip), vehicle: saline with Tween-80) was 100 % of control.
`CCC1CCC(NC(=O)N(CCF)N=O)CC1` (stereo not drawn) was tested, and the T/C (dose: 12.0 mg/kg/injection, schedule: Q01DX001 (ip), vehicle: other) was 105 % of control, the T/C (dose: 18.0 mg/kg/injection, schedule: Q01DX001 (ip), vehicle: other) was 114 % of control and the T/C (dose: 60.0 mg/kg/injection, schedule: Q01DX001 (ip), vehicle: other) was 215 % of control. For the same compound, the T/C (dose: 93.0 mg/kg/injection, schedule: Q01DX001 (ip), vehicle: other) was 223 % of control.
For `CC(=O)c1ccc[n+](C)c1`, the T/C (dose: 50.0 mg/kg/injection, schedule: Q01DX009 (ip), vehicle: saline) was 102 % of control, the T/C (dose: 100.0 mg/kg/injection, schedule: Q01DX009 (ip), vehicle: saline) was 100 % of control and the T/C (dose: 200.0 mg/kg/injection, schedule: Q01DX009 (ip), vehicle: saline) was 91 % of control.
`CCSC1=NCCS1` was tested, and the T/C (dose: 9.5 mg/kg/injection, schedule: Q01DX001 (ip), vehicle: other) was 103 % of control, the T/C (dose: 19.0 mg/kg/injection, schedule: Q01DX001 (ip), vehicle: other) was 112 % of control and the T/C (dose: 38.0 mg/kg/injection, schedule: Q01DX001 (ip), vehicle: other) was 103 % of control. For the same compound, the T/C (dose: 75.0 mg/kg/injection, schedule: Q01DX001 (ip), vehicle: other) was 112 % of control and the T/C (dose: 150.0 mg/kg/injection, schedule: Q01DX001 (ip), vehicle: other) was 101 % of control.
With `Nc1nc(N)c(N)c(Nc2ccc(O)cc2)n1` the T/C (dose: 100.0 mg/kg/injection, schedule: Q01DX Z (ip), vehicle: saline) was 102 % of control.
`CCCCCCOC(=O)Nc1ccc([N+](=O)[O-])cc1OC` was tested, and the T/C [1] was 103 % of control, the T/C [2] was 100 % of control and the T/C (dose: 400.0 mg/kg/injection, schedule: Q01DX009 (ip), vehicle: Klucel (hydroxypropylcellulose) (HPC)) was 95 % of control.
In the case of `COC(=O)C[As+](c1ccccc1)(c1ccccc1)c1ccccc1`, the T/C (dose: 38.0 mg/kg/injection, schedule: Q04DX003 (ip), vehicle: saline) is reported as 91 % of control, the T/C (dose: 75.0 mg/kg/injection, schedule: Q04DX003 (ip), vehicle: saline) is reported as 100 % of control and the T/C (dose: 150.0 mg/kg/injection, schedule: Q04DX003 (ip), vehicle: saline) is reported as 96 % of control.
For `CC(N)C(O)C(Cl)(Cl)Cl` (stereo not drawn), the T/C [3] was 92 % of control, the T/C [4] was 92 % of control and the T/C (dose: 400.0 mg/kg/injection, schedule: Q04DX003 (ip), vehicle: saline with Tween-80) was 90 % of control.
With `c1ccc(-c2nncnn2)cc1` the T/C (dose: 25.0 mg/kg/injection, schedule: Q04DX003 (ip), vehicle: saline with Tween-80) was 97 % of control, the T/C [5] was 92 % of control and the T/C [3] was 101 % of control.
`Cc1ccccc1-c1c2ccccc2c2ccccc2[n+]1[O-]` was tested, and the T/C (dose: 50.0 mg/kg/injection, schedule: Q01DX009 (ip), vehicle: Klucel (hydroxypropylcellulose) (HPC)) was 101 % of control, the T/C [1] was 101 % of control and the T/C [2] was 108 % of control.
With `CC(C)CN(C)N=Nc1ccccc1C(=O)NN` the T/C (dose: 50.0 mg/kg/injection, schedule: Q01DX009 (ip), vehicle: saline with Tween-80) was 100 % of control, the T/C [5] was 98 % of control and the T/C (dose: 100.0 mg/kg/injection, schedule: Q01DX009 (ip), vehicle: saline with Tween-80) was 98 % of control. For the same compound, the T/C [3] was 98 % of control, the T/C (dose: 200.0 mg/kg/injection, schedule: Q01DX009 (ip), vehicle: saline with Tween-80) was 121 % of control and the T/C [4] was 103 % of control.
`CC(=O)C1CCC2C3CCC4CC(O)CCC4(C)C3CCC12C#N` (stereo not drawn) was tested, and the T/C (dose: 100.0 mg/kg/injection, schedule: Q01DX009 (sc), vehicle: steriod suspending solution) was 101 % of control, the T/C (dose: 100.0 mg/kg/injection, schedule: Q04DX003 (sc), vehicle: steriod suspending solution) was 93 % of control and the T/C (dose: 200.0 mg/kg/injection, schedule: Q01DX009 (sc), vehicle: steriod suspending solution) was 108 % of control. For the same compound, the T/C (dose: 200.0 mg/kg/injection, schedule: Q04DX003 (sc), vehicle: steriod suspending solution) was 102 % of control, the T/C (dose: 400.0 mg/kg/injection, schedule: Q01DX009 (sc), vehicle: steriod suspending solution) was 108 % of control and the T/C (dose: 400.0 mg/kg/injection, schedule: Q04DX003 (sc), vehicle: steriod suspending solution) was 104 % of control.
